From ChEMBL document CHEMBL5244269, “Improving metabolic stability and removing aldehyde oxidase liability in a 5-azaquinazoline series of IRAK4 inhibitors” (Bioorg Med Chem, 2020)

Columns and labels:
SUD4 [1] = assay: Growth inhibition of human SU-DHL-4 cells at 1.7 uM incubated for 3 days in presence of 0.033 uM acalabrutinib relative to control; format: functional; settings: SU-DHL-4, 72 h, time 3 day, read-out: GI
SUD4 [2] = assay: Growth inhibition of human SU-DHL-4 cells at 1.7 uM incubated for 3 days in presence of 0.003 uM acalabrutinib relative to control; format: functional; settings: SU-DHL-4, 72 h, time 3 day, read-out: GI
SUD4 [3] = assay: Growth inhibition of human SU-DHL-4 cells at 0.33 uM incubated for 3 days in presence of 0.033 uM acalabrutinib relative to control; format: functional; settings: SU-DHL-4, 72 h, time 3 day, read-out: GI
SUD4 [4] = assay: Growth inhibition of human SU-DHL-4 cells at 10 uM incubated for 3 days (reference value: -1%); format: functional; settings: SU-DHL-4, 72 h, time 3 day, read-out: GI
SUD4 [5] = assay: Growth inhibition of human SU-DHL-4 cells at 0.33 uM incubated for 3 days (reference value: -1%); format: functional; settings: SU-DHL-4, 72 h, time 3 day, read-out: GI
SUD4 [6] = assay: Growth inhibition of human SU-DHL-4 cells at 1.7 uM incubated for 3 days (reference value: -1%); format: functional; settings: SU-DHL-4, 72 h, time 3 day, read-out: GI
SUD4 [7] = assay: Growth inhibition of human SU-DHL-4 cells at 0.17 uM incubated for 3 days (reference value: -1%); format: functional; settings: SU-DHL-4, 72 h, time 3 day, read-out: GI
[8] = biological target: T1, Interleukin-1 receptor-associated kinase 4 (Homo sapiens, UniProt Q9NWZ3); assay: Inhibition of IRAK4 (unknown origin) in presence of ATP by enzymatic assay
T1 sequence (Q9NWZ3 whole entry): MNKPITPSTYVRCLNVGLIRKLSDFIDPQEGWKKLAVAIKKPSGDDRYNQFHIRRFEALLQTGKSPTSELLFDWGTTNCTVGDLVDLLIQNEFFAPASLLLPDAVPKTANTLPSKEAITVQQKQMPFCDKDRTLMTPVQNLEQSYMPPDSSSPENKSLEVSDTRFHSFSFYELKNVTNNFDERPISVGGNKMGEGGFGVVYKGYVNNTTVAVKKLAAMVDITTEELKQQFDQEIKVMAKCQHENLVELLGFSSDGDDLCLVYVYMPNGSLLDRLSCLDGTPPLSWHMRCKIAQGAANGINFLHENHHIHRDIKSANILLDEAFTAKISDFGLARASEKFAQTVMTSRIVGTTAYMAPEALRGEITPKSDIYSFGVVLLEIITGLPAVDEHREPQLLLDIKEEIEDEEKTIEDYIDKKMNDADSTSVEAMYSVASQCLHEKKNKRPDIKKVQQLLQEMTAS

[9] = Lipophilicity, LogD at pH 7.4 of the compound by shake flask method; format: physicochemical; settings: buffer
[10] = Metabolic stability in human liver microsomes assessed as intrinsic clearance; format: ADME, Microsome; settings: read-out: CLH
[11] = Efflux ratio of apparent permeability basolateral to apical side over apical to basolateral side in human Caco-2 cells measured for 360 mins by liquid scintillation counting based analysis; format: ADME, cell-based
[12] = biological target: Interleukin-1 receptor-associated kinase 1 (Homo sapiens, UniProt P51617); assay: Inhibition of IRAK1 (unknown origin) in presence of 25 uM ATP
Chain of Interleukin-1 receptor-associated kinase 1 (P51617 whole entry): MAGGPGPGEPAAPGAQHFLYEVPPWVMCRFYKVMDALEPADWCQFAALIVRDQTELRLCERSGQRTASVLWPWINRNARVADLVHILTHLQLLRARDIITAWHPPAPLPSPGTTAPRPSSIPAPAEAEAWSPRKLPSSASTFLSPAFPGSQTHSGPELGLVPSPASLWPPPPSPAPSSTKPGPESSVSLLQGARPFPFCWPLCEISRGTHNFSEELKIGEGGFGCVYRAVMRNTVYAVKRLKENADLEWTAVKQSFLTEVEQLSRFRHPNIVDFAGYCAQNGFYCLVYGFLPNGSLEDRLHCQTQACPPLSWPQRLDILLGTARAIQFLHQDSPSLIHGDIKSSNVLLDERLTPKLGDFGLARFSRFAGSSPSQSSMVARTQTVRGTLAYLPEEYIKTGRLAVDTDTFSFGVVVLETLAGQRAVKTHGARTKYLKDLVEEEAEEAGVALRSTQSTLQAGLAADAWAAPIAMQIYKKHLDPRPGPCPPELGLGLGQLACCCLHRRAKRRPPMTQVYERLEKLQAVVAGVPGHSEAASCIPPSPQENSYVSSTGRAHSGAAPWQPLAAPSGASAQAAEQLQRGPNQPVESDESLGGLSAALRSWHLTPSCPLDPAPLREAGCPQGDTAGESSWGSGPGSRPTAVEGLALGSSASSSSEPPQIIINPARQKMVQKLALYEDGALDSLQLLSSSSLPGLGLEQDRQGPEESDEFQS

[13] = biological target: High affinity nerve growth factor receptor (Homo sapiens, UniProt P04629); assay: Inhibition of TRKA (unknown origin) in presence of 400 uM ATP
Chain of High affinity nerve growth factor receptor (P04629 whole entry): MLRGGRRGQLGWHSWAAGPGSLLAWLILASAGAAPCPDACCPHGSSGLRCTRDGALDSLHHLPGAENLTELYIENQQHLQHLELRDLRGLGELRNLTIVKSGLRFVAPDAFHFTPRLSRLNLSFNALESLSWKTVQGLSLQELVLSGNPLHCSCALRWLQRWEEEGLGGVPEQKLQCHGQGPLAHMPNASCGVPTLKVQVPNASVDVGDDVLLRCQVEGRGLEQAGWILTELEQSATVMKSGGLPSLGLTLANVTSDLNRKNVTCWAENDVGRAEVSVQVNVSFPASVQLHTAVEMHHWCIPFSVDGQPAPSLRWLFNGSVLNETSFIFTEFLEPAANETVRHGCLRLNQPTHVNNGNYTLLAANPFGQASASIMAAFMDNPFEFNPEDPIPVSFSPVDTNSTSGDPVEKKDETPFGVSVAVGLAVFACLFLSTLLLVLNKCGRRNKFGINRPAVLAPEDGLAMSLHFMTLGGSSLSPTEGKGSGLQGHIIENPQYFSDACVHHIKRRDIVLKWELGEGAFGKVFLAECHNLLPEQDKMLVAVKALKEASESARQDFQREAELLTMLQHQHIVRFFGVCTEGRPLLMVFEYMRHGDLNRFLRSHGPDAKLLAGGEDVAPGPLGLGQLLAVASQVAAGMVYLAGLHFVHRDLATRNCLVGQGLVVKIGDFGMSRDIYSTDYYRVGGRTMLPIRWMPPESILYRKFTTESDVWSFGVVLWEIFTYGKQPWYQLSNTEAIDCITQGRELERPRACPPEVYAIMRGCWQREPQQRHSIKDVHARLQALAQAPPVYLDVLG

[14] = biological target: BDNF/NT-3 growth factors receptor (Homo sapiens, UniProt Q16620); assay: Inhibition of TRKB (unknown origin) in presence of 25 uM ATP
Chain of BDNF/NT-3 growth factors receptor (Q16620 whole entry): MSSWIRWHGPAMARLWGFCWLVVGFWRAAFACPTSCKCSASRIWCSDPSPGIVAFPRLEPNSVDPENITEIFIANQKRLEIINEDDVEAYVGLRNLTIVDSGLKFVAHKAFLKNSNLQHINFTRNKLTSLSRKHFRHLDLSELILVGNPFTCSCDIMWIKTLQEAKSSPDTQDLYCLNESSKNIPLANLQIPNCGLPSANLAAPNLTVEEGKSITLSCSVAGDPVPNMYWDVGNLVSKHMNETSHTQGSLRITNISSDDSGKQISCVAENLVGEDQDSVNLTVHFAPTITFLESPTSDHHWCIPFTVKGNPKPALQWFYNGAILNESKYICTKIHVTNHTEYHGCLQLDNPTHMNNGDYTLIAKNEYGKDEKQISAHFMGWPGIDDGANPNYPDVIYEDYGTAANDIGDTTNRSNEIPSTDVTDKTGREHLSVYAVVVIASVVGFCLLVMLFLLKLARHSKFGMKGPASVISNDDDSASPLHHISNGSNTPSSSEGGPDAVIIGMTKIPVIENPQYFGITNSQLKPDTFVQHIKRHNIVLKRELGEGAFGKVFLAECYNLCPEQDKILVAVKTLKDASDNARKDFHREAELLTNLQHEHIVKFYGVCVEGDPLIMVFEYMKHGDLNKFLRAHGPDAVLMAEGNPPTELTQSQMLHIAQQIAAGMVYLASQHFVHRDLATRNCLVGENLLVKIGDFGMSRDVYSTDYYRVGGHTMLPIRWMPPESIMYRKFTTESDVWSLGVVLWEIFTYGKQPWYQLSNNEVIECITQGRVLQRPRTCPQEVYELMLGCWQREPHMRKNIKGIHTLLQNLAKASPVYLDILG

[15] = biological target: NT-3 growth factor receptor (Homo sapiens, UniProt Q16288); assay: Inhibition of TRKC (unknown origin) in presence of 50 uM ATP
Chain of NT-3 growth factor receptor (Q16288 whole entry): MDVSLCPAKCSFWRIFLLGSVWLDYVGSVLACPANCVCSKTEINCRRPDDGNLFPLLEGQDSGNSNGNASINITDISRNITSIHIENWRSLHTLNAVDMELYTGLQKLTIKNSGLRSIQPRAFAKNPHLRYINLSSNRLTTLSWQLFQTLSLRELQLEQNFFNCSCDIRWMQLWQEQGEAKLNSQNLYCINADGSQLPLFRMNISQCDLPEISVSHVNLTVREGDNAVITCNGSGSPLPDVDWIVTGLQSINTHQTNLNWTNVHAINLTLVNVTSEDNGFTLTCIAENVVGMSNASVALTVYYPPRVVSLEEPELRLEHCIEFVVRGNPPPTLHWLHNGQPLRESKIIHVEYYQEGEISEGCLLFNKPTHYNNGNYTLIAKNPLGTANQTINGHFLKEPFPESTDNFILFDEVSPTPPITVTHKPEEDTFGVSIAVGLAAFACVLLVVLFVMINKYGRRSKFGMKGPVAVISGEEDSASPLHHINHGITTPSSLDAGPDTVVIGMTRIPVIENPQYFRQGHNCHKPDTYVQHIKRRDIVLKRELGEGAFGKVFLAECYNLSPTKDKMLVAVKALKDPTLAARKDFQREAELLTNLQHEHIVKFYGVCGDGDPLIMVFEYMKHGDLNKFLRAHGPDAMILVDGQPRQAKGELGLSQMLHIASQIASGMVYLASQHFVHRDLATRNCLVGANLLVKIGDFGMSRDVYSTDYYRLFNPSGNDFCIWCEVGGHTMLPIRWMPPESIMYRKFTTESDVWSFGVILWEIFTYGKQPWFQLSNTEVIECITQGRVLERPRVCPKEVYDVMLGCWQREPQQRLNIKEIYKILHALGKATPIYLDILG

OCI-Ly10 [16] = assay: Growth inhibition of human OCILY10 cells at 0.17 uM incubated for 3 days (Rvb= -3%); format: functional; settings: OCI-Ly10, 72 h, time 3 day, read-out: GI
OCI-Ly10 [17] = assay: Growth inhibition of human OCILY10 cells at 0.33 uM incubated for 3 days (Rvb= -3%); format: functional; settings: OCI-Ly10, 72 h, time 3 day, read-out: GI
OCI-Ly10 [18] = assay: Growth inhibition of human OCILY10 cells at 1.7 uM incubated for 3 days (Rvb= -3%); format: functional; settings: OCI-Ly10, 72 h, time 3 day, read-out: GI
OCI-Ly10 [19] = assay: Growth inhibition of human OCILY10 cells at 3.3 uM incubated for 3 days (Rvb= -3%); format: functional; settings: OCI-Ly10, 72 h, time 3 day, read-out: GI
OCI-Ly10 [20] = assay: Growth inhibition of human OCILY10 cells at 3.3 uM incubated for 3 days in presence of 0.017 uM acalabrutinib relative to control; format: functional; settings: OCI-Ly10, 72 h, time 3 day, read-out: GI
OCI-Ly10 [21] = assay: Growth inhibition of human OCILY10 cells at 3.3 uM incubated for 3 days in presence of 0.033 uM acalabrutinib relative to control; format: functional; settings: OCI-Ly10, 72 h, time 3 day, read-out: GI
OCI-Ly10 [22] = assay: Growth inhibition of human OCILY10 cells at 10 uM incubated for 3 days in presence of 0.33 uM acalabrutinib relative to control; format: functional; settings: OCI-Ly10, 72 h, time 3 day, read-out: GI
SUD4 [23] = assay: Growth inhibition of human SU-DHL-4 cells at 3.3 uM incubated for 3 days in presence of 0.033 uM acalabrutinib relative to control; format: functional; settings: SU-DHL-4, 72 h, time 3 day, read-out: GI
SUD4 [24] = assay: Growth inhibition of human SU-DHL-4 cells at 10 uM incubated for 3 days in presence of 0.003 uM acalabrutinib relative to control; format: functional; settings: SU-DHL-4, 72 h, time 3 day, read-out: GI
SUD4 [25] = assay: Growth inhibition of human SU-DHL-4 cells at 10 uM incubated for 3 days in presence of 0.17 uM acalabrutinib relative to control; format: functional; settings: SU-DHL-4, 72 h, time 3 day, read-out: GI

SMILES | inhibition of growth at 1.7 µM (SUD4 [1]) [%] | inhibition of growth at 1.7 µM (SUD4 [2]) [%] | inhibition of growth at 0.33 µM (SUD4 [3]) [%] | inhibition of growth at 10 µM (SUD4 [4]) [%] | inhibition of growth at 0.33 µM (SUD4 [5]) [%] | inhibition of growth at 1.7 µM (SUD4 [6]) [%] | inhibition of growth at 0.17 µM (SUD4 [7]) [%] | IC50 [8] [µM] | logD [9] | microsomal CLint [10] [µL/min/mg] | efflux ratio at 6 h [11] | IC50 [12] [µM] | IC50 [13] [µM] | IC50 [14] [µM] | inhibition of growth at 3.3 µM (OCI-Ly10 [20]) [%] | inhibition of growth at 3.3 µM (OCI-Ly10 [21]) [%] | inhibition of growth at 10 µM (OCI-Ly10 [22]) [%] | inhibition of growth at 3.3 µM (SUD4 [23]) [%] | inhibition of growth at 10 µM (SUD4 [24]) [%] | inhibition of growth at 10 µM (SUD4 [25]) [%] | also measured
Cc1ncc(-c2nc3c(OC4(C)CC4)nc(Nc4cnn(C5CCN(C)CC5)c4)nc3cc2F)cn1 | -4 | -1 | -3 | 0 | -1 | -2 | -2 | 0.003 | 2.6 | 58 | 1.4 | 1.4 | 0.27 | 0.76 | 194 | 194 | 197 | -4 | 1 | -1 | IC50 [15]: 0.27 µM; inhibition of growth at 0.17 µM (OCI-Ly10 [16]): 1%; inhibition of growth at 0.33 µM (OCI-Ly10 [17]): 8%; inhibition of growth at 1.7 µM (OCI-Ly10 [18]): 44%; inhibition of growth at 3.3 µM (OCI-Ly10 [19]): 76%
CC[C@@H]1[C@H](F)C(=O)N[C@@H]1COc1nccc2cc(C(N)=O)c(OC)cc12 [ZIMLOVISERTIB] | 1 | 2 | 1 | 2 | 1 | 1 | 1 |  |  |  |  |  |  |  | 95 | 139 | 177 | 2 | 2 | 3 | 
Cc1ncc(-c2nc3c(NC(C)C)nc(Nc4cnn(C5CC6(C5)CN(C)C6)c4)nc3cc2F)cn1 | 3 | 3 | 3 |  |  |  |  | 0.002 | 1.9 | < 3 | 4.2 | 1.2 | 0.48 | 0.93 | 196 | 196 | 198 | 4 | 7 | 7 | IC50 [15]: 0.57 µM; inhibition of growth at 0.17 µM (OCI-Ly10 [16]): 5%; inhibition of growth at 0.33 µM (OCI-Ly10 [17]): 35%; inhibition of growth at 1.7 µM (OCI-Ly10 [18]): 75%; inhibition of growth at 3.3 µM (OCI-Ly10 [19]): 105%
